The values below come from article PMC5564600 (Oncotarget, 2017).

Holding throughout (format): binding
The target in test [1] is T1, panel of 442 kinases (Homo sapiens, UniProt O15530).
T1 construct: purchased Ambit Biosciences (scanMAXX KINOMEscan)
T1 sequence (O15530 1-556): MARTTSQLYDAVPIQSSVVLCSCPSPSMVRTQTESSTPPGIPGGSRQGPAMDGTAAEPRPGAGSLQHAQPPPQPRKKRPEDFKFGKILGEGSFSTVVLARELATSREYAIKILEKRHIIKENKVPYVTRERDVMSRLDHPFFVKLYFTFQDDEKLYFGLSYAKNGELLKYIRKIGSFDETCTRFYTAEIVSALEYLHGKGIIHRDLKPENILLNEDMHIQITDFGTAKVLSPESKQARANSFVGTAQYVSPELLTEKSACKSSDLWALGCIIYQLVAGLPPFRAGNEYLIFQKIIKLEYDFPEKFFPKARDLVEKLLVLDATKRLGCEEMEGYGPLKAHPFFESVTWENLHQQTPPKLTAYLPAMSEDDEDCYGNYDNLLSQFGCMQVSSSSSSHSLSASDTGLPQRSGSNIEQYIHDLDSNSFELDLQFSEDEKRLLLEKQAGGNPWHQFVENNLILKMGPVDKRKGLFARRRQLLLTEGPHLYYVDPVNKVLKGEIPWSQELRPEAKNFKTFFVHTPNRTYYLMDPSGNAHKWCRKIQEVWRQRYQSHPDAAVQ
Description: biochemical. As to conditions: kinase PDPK1; for remaining activity at 1 µM: read-out: % of control at 1 µM.

The target in test [2] is T2, panel of 442 kinases (Homo sapiens, UniProt P00533, G719S).
T2 construct: purchased Ambit Biosciences (scanMAXX KINOMEscan)
Description: biochemical. As to conditions: EGFR(G719S); for remaining activity at 1 µM: read-out: % of control at 1 µM.

The target in test [3] is T3, panel of 442 kinases (Homo sapiens, UniProt P07949, V804L).
T3 construct: purchased Ambit Biosciences (scanMAXX KINOMEscan)
Description: biochemical. As to conditions: kinase RET(V804L); for remaining activity at 1 µM: read-out: RET(V804L) (% of control at 1 µM).

Test [4] deals with T4, panel of 442 kinases (Homo sapiens, UniProt P08581).
T4 construct: purchased Ambit Biosciences (scanMAXX KINOMEscan)
Description: biochemical. As to conditions: kinase MET; for remaining activity at 1 µM: read-out: % of control at 1 µM.

For test [5], the target named is panel of 442 kinases (Homo sapiens, UniProt P42336, E542K). Description: biochemical. As to conditions: kinase PIK3CA(E542K); 1 µM; read-out: % of control at 1 µM.
Test [6] has as its target panel of 442 kinases (Homo sapiens, UniProt P42336, E545A). Description: biochemical. As to conditions: kinase PIK3CA(E545A); 1 µM; read-out: % of control at 1 µM.
The target of test [7] is panel of 442 kinases (Homo sapiens, UniProt P42336, H1047L). Description: biochemical. As to conditions: kinase PIK3CA(H1047L); 1 µM; read-out: % of control at 1 µM.
Test [8] addresses panel of 442 kinases (Homo sapiens, UniProt P42336, H1047Y). Nature of the test: biochemical. As to conditions: kinase PIK3CA(H1047Y); 1 µM; read-out: % of control at 1 µM.
The target of test [9] is panel of 442 kinases (Homo sapiens, UniProt P42336, I800L). Description: biochemical. As to conditions: kinase PIK3CA(I800L); 1 µM; read-out: % of control at 1 µM.
Test [10] has as its target T5, panel of 442 kinases (Homo sapiens, UniProt P49841).
T5 construct: purchased Ambit Biosciences (scanMAXX KINOMEscan)
Nature of the test: biochemical. As to conditions: kinase GSK3B; for remaining activity at 1 µM: read-out: % of control at 1 µM.

In test [11] the target is T6, panel of 442 kinases (Homo sapiens, UniProt Q13523).
T6 construct: purchased Ambit Biosciences (scanMAXX KINOMEscan)
Description: biochemical. As to conditions: kinase PRP4; for remaining activity at 1 µM: read-out: PRP4 (% of control at 1 µM).

The target of test [12] is T7, panel of 442 kinases (Homo sapiens, UniProt Q13976).
T7 construct: purchased Ambit Biosciences (scanMAXX KINOMEscan)
T7 sequence (Q13976 1-671): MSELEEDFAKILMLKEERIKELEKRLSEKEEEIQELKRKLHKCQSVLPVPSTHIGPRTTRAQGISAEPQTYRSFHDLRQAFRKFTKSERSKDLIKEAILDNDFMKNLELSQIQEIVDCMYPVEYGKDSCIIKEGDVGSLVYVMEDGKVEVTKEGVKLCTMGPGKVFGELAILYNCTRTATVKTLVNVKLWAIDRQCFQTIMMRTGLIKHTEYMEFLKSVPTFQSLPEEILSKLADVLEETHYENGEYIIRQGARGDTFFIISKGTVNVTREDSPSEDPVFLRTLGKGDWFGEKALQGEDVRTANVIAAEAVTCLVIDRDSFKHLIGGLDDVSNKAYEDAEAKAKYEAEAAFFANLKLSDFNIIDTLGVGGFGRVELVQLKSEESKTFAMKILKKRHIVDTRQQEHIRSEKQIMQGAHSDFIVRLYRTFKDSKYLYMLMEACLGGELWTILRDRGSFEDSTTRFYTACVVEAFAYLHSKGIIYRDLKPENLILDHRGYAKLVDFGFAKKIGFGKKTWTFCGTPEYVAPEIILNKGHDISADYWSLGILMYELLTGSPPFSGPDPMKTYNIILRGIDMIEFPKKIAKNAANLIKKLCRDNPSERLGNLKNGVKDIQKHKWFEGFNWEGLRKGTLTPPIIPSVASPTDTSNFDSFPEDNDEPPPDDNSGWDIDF
Nature of the test: biochemical. As to conditions: kinase PRKG1; for remaining activity at 1 µM: read-out: PRKG1 (% of control at 1 µM).

The target in test [13] is T8, panel of 442 kinases (Homo sapiens, UniProt Q15303).
T8 construct: purchased Ambit Biosciences (scanMAXX KINOMEscan)
Description: biochemical. As to conditions: ERBB4; for remaining activity at 1 µM: read-out: % of control at 1 µM.

For test [14], the target named is T9, panel of 442 kinases (Homo sapiens, UniProt Q9BQI3).
T9 construct: purchased Ambit Biosciences (scanMAXX KINOMEscan)
Nature of the test: biochemical. As to conditions: EIF2AK1; for remaining activity at 1 µM: read-out: % of control at 1 µM.

The target of test [15] is T10, panel of 442 kinases (Homo sapiens, UniProt Q9UKE5).
T10 construct: purchased Ambit Biosciences (scanMAXX KINOMEscan)
Nature of the test: biochemical. As to conditions: kinase TNIK; for remaining activity at 1 µM: read-out: TNIK (% of control at 1 µM).

Test [16] concerns the target T11, panel of 442 kinases (Homo sapiens, UniProt Q9Y2K2).
T11 construct: purchased Ambit Biosciences (scanMAXX KINOMEscan)
Description: biochemical. As to conditions: kinase QSK; for remaining activity at 1 µM: read-out: QSK (% of control at 1 µM).

The target of the next test is T12, G2019S mutant of LRRK2 (Homo sapiens, UniProt Q5S007, G2019S).
T12 construct: purchased Ambit Biosciences (scanMAXX KINOMEscan)
Nature of the test: KINOMEscan, LRRK2 G2019S. As to conditions: for remaining binding at 1 µM / remaining binding at 10 µM: kinase LRRK2(G2019S); for remaining binding at 1 µM: read-out: % of control at 1 µM; for remaining binding at 10 µM: read-out: % of control at 10 µM.

The mark [17] stands for this setting: 10 µM, read-out: % of control at 10 µM.

T4 sequence (P08581 25-1390): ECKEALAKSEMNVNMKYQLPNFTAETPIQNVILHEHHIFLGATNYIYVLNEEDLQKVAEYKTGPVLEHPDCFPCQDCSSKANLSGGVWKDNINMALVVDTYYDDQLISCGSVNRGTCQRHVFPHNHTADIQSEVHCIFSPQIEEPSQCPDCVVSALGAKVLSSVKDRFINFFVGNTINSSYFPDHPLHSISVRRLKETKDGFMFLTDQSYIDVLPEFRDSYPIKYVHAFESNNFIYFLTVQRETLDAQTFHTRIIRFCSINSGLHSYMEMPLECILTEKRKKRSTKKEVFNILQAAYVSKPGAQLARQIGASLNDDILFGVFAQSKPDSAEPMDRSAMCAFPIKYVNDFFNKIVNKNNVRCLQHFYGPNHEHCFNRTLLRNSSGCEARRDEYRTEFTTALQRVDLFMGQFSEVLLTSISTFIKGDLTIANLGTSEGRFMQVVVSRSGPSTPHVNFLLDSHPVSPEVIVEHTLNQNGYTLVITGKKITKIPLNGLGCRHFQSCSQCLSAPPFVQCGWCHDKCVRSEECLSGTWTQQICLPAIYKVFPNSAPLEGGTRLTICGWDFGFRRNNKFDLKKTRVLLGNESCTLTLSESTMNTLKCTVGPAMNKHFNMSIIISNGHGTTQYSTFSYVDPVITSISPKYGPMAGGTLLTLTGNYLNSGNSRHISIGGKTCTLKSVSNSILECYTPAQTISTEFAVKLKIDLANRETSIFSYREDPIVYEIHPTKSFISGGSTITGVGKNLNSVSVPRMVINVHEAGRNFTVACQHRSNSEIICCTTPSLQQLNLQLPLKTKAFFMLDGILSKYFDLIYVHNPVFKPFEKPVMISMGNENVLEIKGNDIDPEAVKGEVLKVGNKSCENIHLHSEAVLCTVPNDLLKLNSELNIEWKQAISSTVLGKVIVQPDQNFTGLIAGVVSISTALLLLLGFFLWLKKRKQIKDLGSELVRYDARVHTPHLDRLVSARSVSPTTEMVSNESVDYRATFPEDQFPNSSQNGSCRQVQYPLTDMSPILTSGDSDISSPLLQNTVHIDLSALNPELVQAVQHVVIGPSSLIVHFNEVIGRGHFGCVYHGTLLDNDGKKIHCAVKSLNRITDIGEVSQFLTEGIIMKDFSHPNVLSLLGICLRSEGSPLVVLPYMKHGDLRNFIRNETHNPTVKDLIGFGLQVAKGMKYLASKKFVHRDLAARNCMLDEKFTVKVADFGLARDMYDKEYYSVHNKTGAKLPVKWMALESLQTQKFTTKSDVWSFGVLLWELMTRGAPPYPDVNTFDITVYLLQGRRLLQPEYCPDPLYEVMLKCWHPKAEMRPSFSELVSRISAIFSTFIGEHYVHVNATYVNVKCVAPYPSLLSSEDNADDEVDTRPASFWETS
T8 sequence (Q15303 26-1308): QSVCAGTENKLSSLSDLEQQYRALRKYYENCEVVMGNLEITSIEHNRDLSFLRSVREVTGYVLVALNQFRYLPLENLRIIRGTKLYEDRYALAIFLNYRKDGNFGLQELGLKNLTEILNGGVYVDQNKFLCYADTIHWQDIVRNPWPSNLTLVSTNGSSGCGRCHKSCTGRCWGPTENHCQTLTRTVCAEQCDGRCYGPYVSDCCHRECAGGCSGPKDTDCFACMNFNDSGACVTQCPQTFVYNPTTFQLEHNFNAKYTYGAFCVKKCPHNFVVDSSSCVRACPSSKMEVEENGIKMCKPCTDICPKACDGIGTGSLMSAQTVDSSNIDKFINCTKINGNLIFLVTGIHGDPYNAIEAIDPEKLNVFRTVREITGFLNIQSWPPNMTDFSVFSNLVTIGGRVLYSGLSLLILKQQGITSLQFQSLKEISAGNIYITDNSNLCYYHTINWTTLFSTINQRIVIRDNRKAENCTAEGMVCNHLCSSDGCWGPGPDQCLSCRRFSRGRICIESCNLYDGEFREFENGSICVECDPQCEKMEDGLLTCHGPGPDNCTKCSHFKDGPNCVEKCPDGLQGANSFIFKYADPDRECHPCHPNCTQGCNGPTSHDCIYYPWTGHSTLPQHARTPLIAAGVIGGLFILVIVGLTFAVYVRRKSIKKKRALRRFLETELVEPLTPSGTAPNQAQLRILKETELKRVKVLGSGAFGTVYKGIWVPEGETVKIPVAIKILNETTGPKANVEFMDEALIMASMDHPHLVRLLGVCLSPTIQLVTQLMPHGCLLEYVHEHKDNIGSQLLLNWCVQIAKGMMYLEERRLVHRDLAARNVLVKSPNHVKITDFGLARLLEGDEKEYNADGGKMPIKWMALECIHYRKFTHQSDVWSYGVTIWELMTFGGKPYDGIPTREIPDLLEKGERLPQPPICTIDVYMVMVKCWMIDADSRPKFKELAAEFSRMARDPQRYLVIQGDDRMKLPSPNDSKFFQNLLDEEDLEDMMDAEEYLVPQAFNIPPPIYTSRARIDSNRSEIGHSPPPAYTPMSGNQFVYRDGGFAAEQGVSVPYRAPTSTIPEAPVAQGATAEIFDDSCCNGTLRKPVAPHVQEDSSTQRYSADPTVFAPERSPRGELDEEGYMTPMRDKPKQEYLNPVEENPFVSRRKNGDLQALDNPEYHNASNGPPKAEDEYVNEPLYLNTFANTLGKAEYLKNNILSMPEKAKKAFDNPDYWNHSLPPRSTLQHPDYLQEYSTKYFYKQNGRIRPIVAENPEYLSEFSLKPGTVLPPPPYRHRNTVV
T10 sequence (Q9UKE5 whole entry): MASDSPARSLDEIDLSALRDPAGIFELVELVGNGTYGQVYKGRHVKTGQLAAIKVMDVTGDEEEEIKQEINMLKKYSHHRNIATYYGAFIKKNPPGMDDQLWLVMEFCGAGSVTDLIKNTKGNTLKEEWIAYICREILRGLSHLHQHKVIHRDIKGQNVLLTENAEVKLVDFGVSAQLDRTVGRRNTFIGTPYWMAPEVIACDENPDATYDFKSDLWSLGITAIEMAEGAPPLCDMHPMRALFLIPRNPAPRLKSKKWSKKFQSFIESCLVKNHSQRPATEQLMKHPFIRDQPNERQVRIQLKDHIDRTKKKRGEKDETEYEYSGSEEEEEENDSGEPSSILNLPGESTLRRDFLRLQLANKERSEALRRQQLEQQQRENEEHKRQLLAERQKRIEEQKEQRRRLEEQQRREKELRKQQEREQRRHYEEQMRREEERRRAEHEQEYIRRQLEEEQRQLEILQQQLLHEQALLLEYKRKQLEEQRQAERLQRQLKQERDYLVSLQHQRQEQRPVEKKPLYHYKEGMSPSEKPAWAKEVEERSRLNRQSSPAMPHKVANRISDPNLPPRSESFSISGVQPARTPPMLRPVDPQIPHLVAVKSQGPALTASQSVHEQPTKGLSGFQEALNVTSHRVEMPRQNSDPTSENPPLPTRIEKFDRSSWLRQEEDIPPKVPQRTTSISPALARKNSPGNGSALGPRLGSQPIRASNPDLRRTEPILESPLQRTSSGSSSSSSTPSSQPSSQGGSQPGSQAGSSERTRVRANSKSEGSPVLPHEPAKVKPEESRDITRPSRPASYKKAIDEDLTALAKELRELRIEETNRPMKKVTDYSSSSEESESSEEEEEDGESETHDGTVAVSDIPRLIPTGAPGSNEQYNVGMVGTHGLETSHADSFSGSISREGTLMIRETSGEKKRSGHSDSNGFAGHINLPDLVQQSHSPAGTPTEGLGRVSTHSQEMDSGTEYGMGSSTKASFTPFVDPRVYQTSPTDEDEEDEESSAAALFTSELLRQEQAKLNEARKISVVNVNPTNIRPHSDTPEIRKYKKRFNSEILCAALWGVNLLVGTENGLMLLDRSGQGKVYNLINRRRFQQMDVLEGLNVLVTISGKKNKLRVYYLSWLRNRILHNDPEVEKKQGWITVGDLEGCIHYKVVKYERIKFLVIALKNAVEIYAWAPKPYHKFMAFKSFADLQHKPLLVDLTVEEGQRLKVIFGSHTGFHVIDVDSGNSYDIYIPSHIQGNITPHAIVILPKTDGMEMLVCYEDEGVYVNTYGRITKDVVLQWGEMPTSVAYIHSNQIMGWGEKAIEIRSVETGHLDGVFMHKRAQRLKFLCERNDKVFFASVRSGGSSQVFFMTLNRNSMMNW
T9 sequence (Q9BQI3 whole entry): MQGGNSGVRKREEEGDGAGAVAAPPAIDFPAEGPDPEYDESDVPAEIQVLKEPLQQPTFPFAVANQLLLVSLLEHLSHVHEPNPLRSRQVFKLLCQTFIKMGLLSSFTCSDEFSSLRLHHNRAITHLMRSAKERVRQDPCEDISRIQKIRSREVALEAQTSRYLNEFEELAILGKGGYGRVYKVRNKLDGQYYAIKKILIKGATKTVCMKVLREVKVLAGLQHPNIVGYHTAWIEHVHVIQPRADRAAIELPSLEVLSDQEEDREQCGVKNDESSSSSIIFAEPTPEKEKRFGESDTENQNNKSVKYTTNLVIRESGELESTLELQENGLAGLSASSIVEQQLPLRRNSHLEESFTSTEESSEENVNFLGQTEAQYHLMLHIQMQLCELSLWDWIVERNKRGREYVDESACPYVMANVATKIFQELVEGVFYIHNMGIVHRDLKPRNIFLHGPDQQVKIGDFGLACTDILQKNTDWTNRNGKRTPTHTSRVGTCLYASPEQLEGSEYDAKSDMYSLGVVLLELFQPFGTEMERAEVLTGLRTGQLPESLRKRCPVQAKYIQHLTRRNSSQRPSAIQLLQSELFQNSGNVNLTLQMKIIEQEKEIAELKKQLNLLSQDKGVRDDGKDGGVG
T5 sequence (P49841 whole entry): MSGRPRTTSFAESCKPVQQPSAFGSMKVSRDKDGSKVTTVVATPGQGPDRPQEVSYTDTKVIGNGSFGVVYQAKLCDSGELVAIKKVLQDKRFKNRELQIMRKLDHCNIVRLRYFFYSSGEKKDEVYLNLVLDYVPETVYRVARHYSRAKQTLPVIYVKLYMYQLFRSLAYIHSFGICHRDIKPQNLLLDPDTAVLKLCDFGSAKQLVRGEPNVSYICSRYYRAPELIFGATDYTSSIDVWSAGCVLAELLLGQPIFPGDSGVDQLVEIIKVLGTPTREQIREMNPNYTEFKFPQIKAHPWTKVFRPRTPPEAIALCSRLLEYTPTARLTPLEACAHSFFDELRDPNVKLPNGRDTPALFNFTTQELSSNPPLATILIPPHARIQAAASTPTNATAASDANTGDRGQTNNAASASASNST

As to `COc1ncc(-c2ccc3nccc(-c4ccnnc4)c3c2)cc1NS(=O)(=O)c1ccc(F)cc1F` [Omipalisib], the remaining activity at 1 µM at panel of 442 kinases [1] turned out to be 96%; on panel of 442 kinases [2], 78%; on panel of 442 kinases [3] it was 99%; at panel of 442 kinases [4], 99%; at panel of 442 kinases [5], 0.05%; on panel of 442 kinases [6], 0%. Further, the remaining activity at 1 µM at panel of 442 kinases [7] was 5.6%; at panel of 442 kinases [8], 0%; at panel of 442 kinases [9] it was 3.8%; on panel of 442 kinases [10], 89%; at panel of 442 kinases [11], 95%; on panel of 442 kinases [12], 100%. Besides, the remaining activity at 1 µM on panel of 442 kinases [13], on panel of 442 kinases [14], on panel of 442 kinases [15] and on panel of 442 kinases [16] was 100% each time. In addition, on G2019S mutant of LRRK2, the remaining binding at 1 µM worked out at 87%.
For `Cn1c(=O)n(-c2ccc(C(C)(C)C#N)cc2)c2c3cc(-c4cnc5ccccc5c4)ccc3ncc21` [Dactolisib, 2-methyl-2-[4-(3-methyl-2-oxo-8-quinolin-3-yl-2,3-dihydroimidazo[4,5-c]quinolin-1-yl)-phenyl] propionitrile], the remaining activity at 1 µM came out at 90% at panel of 442 kinases [1]; 99% on panel of 442 kinases [2]; 99% at panel of 442 kinases [3]; 6.4% at panel of 442 kinases [5]; 9.2% on panel of 442 kinases [6]; 0.15% on panel of 442 kinases [7]. The remaining activity at 1 µM on panel of 442 kinases [8] amounted to 3.8%; on panel of 442 kinases [9], 0%; on panel of 442 kinases [10], 100%; at panel of 442 kinases [11] it was 100%; on panel of 442 kinases [12] it was 95%; on panel of 442 kinases [13], 100%. Also, the remaining activity at 1 µM at panel of 442 kinases [14] is 94%; on panel of 442 kinases [16], 100%. Also, at G2019S mutant of LRRK2, the remaining binding at 1 µM is 53%.
For `CS(=O)(=O)N1CCN(Cc2cc3nc(-c4cccc5[nH]ncc45)nc(N4CCOCC4)c3s2)CC1` [Pictilisib, 2-(1H-indazol-4-yl)-6-(4-methanesulfonyl-piperazin-1-ylmethyl)-4-morpholin-4-yl-t hieno[3,2-d]pyrimidine], on G2019S mutant of LRRK2, the remaining binding at 1 µM came to 82% and the remaining binding at 10 µM stood at 51%.
With `Nc1cc(C(F)(F)F)c(-c2cc(N3CCOCC3)nc(N3CCOCC3)n2)cn1` [Buparlisib], the remaining activity at 1 µM on panel of 442 kinases [1] worked out at 89%; at panel of 442 kinases [2], 100%; at panel of 442 kinases [3] it was 100%; on panel of 442 kinases [4], 100%; on panel of 442 kinases [10], 86%; on panel of 442 kinases [11] it was 100%. Moreover, the remaining activity at 1 µM was determined as 77% on panel of 442 kinases [12]; 69% on panel of 442 kinases [13]; 92% at panel of 442 kinases [14]; 100% at panel of 442 kinases [15]; 100% on panel of 442 kinases [16]. For the same compound, the remaining activity at 10 µM was determined as 100% at panel of 442 kinases [1] (setting [17]); 95% on panel of 442 kinases [2] (setting [17]); 100% at panel of 442 kinases [3] (10 µM, read-out: RET(V804L) (% of control at 10 µM)); 100% at panel of 442 kinases [4] (setting [17]); 100% at panel of 442 kinases [10] (setting [17]); 93% at panel of 442 kinases [11] (10 µM, read-out: PRP4 (% of control at 10 µM)). For the same compound, the remaining activity at 10 µM at panel of 442 kinases [12] (10 µM, read-out: PRKG1 (% of control at 10 µM)) worked out at 100%; on panel of 442 kinases [13] (setting [17]), 100%; at panel of 442 kinases [14] (setting [17]), 100%; on panel of 442 kinases [15] (10 µM, read-out: TNIK (% of control at 10 µM)) it was 100%; on panel of 442 kinases [16] (10 µM, read-out: QSK (% of control at 10 µM)), 100%. Moreover, at G2019S mutant of LRRK2, the remaining binding at 1 µM worked out at 88%. Further, the remaining binding at 10 µM at G2019S mutant of LRRK2 worked out at 80%.
On to `FC(F)c1nc2ccccc2n1-c1nc(N2CCOCC2)nc(N2CCOCC2)n1` [ZSTK474, 2-(difluoromethyl)-1-[4,6-di(4-morpholinyl)-1,3,5-triazin-2-yl]-1H-benzimidazole], for which the remaining activity at 1 µM was 100% on panel of 442 kinases [1]; 100% on panel of 442 kinases [2]; 93% at panel of 442 kinases [3]; 100% at panel of 442 kinases [4]; 91% on panel of 442 kinases [10]; 100% at panel of 442 kinases [11]. The remaining activity at 1 µM on panel of 442 kinases [12] turned out to be 100%; on panel of 442 kinases [13], 100%; on panel of 442 kinases [14] it was 77%; at panel of 442 kinases [15], 100%; at panel of 442 kinases [16], 65%. Further, the “binding to LRRK2 G2019S” value at G2019S mutant of LRRK2 (1 μM) stood at 99.7%. Also, the remaining binding at 1 µM at G2019S mutant of LRRK2 turned out to be 0.3%.
